From patent US20260182572A1, “HERBICIDAL COMPOSITIONS” (SYNGENTA CROP PROTECTION AG, priority 2022, published 2026)

Columns and labels:
Type in all cases: in vivo
Details in all cases: sprayed after 8 days, evaluated after 13 days
[1] = system: Alopecurus myosuroides (ALOMY); assay: Glasshouse post-emergence phytotoxicity test, Alopecurus myosuroides (ALOMY)
Procedure: (§1) Seeds of Amaranthus retroflexus (AMARE), Echinochloa crus-galli (ECHCG), Digitaria sanguinalis (DIGSA), Lolium perenne (LOLPE), Alopecurus myosuroides (ALOMY), Chenopodium album (CHEAL), and Ipomoea hederacea (IPOHE) were sown in standard sterilised soil in pots. After cultivation for 8 days under controlled conditions in a glasshouse (at 24/16° C., day/night; 14 hours light; 65% humidity), the plants were sprayed at 500 l/Ha with an aqueous spray solution derived from the formulation of the technical active ingredients in a small amount of acetone and a solvent and emulsifier mixture referred to as IF50 (11.12% Emulsogen EL360 TM+44.44% N-methylpyrrolidone+44.44% Dowanol DPM glycol ether), to create a 50 g/l solution which was then diluted using 0.2% Genapol XO80 (CAS Number: 9043-30-5) as diluent to give the desired final dose of test compound. Where active ingredients were applied as mixtures, aqueous spray solutions were prepared as above, containing both active ingredients. The test plants were then grown under controlled conditions in a glasshouse (at 24/16° C., day/night; 14 hours light; 65% humidity) and watered twice daily. After 13 days, the test was evaluated visually for percentage phytotoxicity to the plants (where 100=total damage to plant; 0=no damage to plant) when compared to control untreated plants. Two to four replicates were applied for each treatment in a randomised block test design.
(§2) 22., E=X+Y−(X*Y/100), where • X=average percent phytotoxicity of herbicide A when applied at a certain rate • Y=average percent phytotoxicity using herbicide B when applied at a certain rate • E=the expected effect of the mixture of herbicides A and B as calculated from the Colby formula.

[2] = system: Chenopodium album (CHEAL); assay: Glasshouse post-emergence phytotoxicity test, Chenopodium album (CHEAL)
Procedure: as §1, §2

Lolium perenne (LOLPE) = assay: Glasshouse post-emergence phytotoxicity test, Lolium perenne (LOLPE)
Procedure: as §1, §2

[3] = system: Amaranthus retroflexus (AMARE); assay: Glasshouse post-emergence phytotoxicity test, Amaranthus retroflexus (AMARE)
Procedure: as §1, §2

[4] = system: Ipomoea hederacea (IPOHE); assay: Glasshouse post-emergence phytotoxicity test, Ipomoea hederacea (IPOHE)
Procedure: as §1, §2

[5] = system: Digitaria sanguinalis (DIGSA); assay: Glasshouse post-emergence phytotoxicity test, Digitaria sanguinalis (DIGSA)
Procedure: as §1, §2

[6] = system: Echinochloa crus-galli (ECHCG); assay: Glasshouse post-emergence phytotoxicity test, Echinochloa crus-galli (ECHCG)
Procedure: as §1, with “Where active ingredients were applied as mixtures, aqueous spray solutions were prepared as above, containing both active ingredients. The test plants were then grown under controlled conditions in a glasshouse (at 24/16° C., day/night; 14 hours light; 65% humidity) and watered twice daily.” left out, “Two to four replicates were applied for each treatment in a randomised block test design.” left out
as §2

| SMILES | Observed percentage phytotoxicity ([1]; rate 0.039 g/ha) | Observed percentage phytotoxicity ([2]; rate 0.156 g/ha) | Observed percentage phytotoxicity ([2]; rate 0.313 g/ha) | Observed percentage phytotoxicity (Lolium perenne (LOLPE); rate 0.156 g/ha) | Observed percentage phytotoxicity (Lolium perenne (LOLPE); rate 0.313 g/ha) | Observed percentage phytotoxicity ([3]; rate 0.078 g/ha) | Observed percentage phytotoxicity ([4]; rate 0.313 g/ha) | Observed percentage phytotoxicity ([5]; rate 0.156 g/ha) | Observed percentage phytotoxicity ([5]; rate 0.313 g/ha) | other results |
| --- | --- | --- | --- | --- | --- | --- | --- | --- | --- | --- |
| COC(=O)[C@@H](C)O/N=C/c1cc(-n2c(=O)cc(C(F)(F)F)n(C)c2=O)c(F)cc1Cl [A] | 0% | 24% | 31% | 0% | 5% | 39% | 68% | 3% | 9% | Observed percentage phytotoxicity ([1]; rate 0.313 g/ha): 3%; Observed percentage phytotoxicity ([2]; rate 0.625 g/ha): 33%; Observed percentage phytotoxicity (Lolium perenne (LOLPE); rate 0.078 g/ha): 3%; Observed percentage phytotoxicity ([3]; rate 0.156 g/ha): 68%; Observed percentage phytotoxicity ([4]; rate 0.078 g/ha): 20%; Observed percentage phytotoxicity ([6]; rate 0.313 g/ha): 1% |
| c1cc[n+]2c(c1)-c1cccc[n+]1CC2 [B-III] | – | – | – | – | – | – | – | – | – | Observed percentage phytotoxicity ([2]; rate 15 g/ha): 15%; Observed percentage phytotoxicity ([3]; rate 3.75 g/ha): 8%; Observed percentage phytotoxicity ([4]; rate 7.5 g/ha): 5% |
| COC(=O)CCNC(=O)C(C)Sc1cc(-n2c(=O)cc(C(F)(F)F)n(C)c2=O)c(F)cc1Cl (stereo not drawn) [B-II] | – | 18% | 18% | 5% | 3% | 30% | 40% | – | 8% | Observed percentage phytotoxicity ([2]; rate 0.078 g/ha): 15%; Observed percentage phytotoxicity ([4]; rate 0.156 g/ha): 18% |
| C=CCOC(=O)C(C)(C)OC(=O)c1cc(-n2c(=O)cc(C(F)(F)F)n(C)c2=O)ccc1Cl [B-I] | 0% | 20% | 40% | – | 5% | 33% | – | 5% | 10% | Observed percentage phytotoxicity ([1]; rate 0.625 g/ha): 8%; Observed percentage phytotoxicity (Lolium perenne (LOLPE); rate 0.039 g/ha): 0%; Observed percentage phytotoxicity (Lolium perenne (LOLPE); rate 0.625 g/ha): 5%; Observed percentage phytotoxicity ([5]; rate 0.625 g/ha): 15%; Observed percentage phytotoxicity ([6]; rate 0.625 g/ha): 5% |
